Measured values taken from article PMC9090415, “Discovery of small molecule inhibitors of Plasmodium falciparum apicoplast DNA polymerase” (Journal of Enzyme Inhibition and Medicinal Chemistry, 2022).

Molecular target: P. falciparum apicoplast DNA polymerase (Pf-apPOL) (Plasmodium falciparum, UniProt Q8ILY1)
Assay: Fluorescence-based high-throughput DNA polymerase assay (molecular beacon), primary screen and dose-response
Type: biochemical
Conditions: for DNA Pol: unit not given
Method: The HT assay employs a molecular beacon, a stem-loop DNA template with a Cy3 dye and the Black Hole Quencher on the 3′ and 5′ ends of the DNA, respectively. Pf-apPOL concentration is based on a calculated absorptivity of ε280 = 56750 M^−1 cm^−1. Reactions were carried out at 25 °C, using Corning 3575 […] (well-volume, 20 µL). Assays testing for compound inhibition composed of reaction buffer (pH 7.9 in 50 mM potassium acetate, 20 mM Tris-acetate and 10 mM magnesium acetate), Pf-apPOL (20 nM), DNA substrate (20 nM), dNTPs (6 µM), and compound (10 µM in DMSO). The DNA and nucleotide substrates (dNTPs) were at concentrations of 20 nM and 6 µM, respectively, in the assay. Pf-apPOL was incubated in the reaction buffer with dNTPs and the compound of interest (10 µM, in the assay) at 25 °C for 10 min. The DNA substrate was then added and the reaction was allowed to proceed for 90 min at 25 °C.
Each assay plate contained 16 negative controls (no Pf-apPOL, DMSO present) and 16 positive controls (Pf-apPOL present, no DMSO). The fluorescence of each well was determined using a BioTek Synergy Neo fluorescence plate reader using excitation and emission wavelengths of 555 and 570 nm, respectively.
In the above, Min is the average of fluorescence emission of the negative controls (substrate only), Max the average fluorescence emission from the positive controls (enzyme + substrate), and Test the emission from the assays in the presence of compounds (enzyme + compound + substrates). […] […] The IC50 of each compound was determined using Equation (2): (2) IC50= Vmax/(1+ (I/IC50)^n)
In the above, n measures cooperativity, with n > 1 indicating synergistic binding of more than a single molecule of the compound.
To identify apPOL inhibitors we utilised our previously developed high-throughput DNA polymerase assay. The HT assay is based on a molecular beacon DNA template that forms a stem-loop with a Cy3 dye and the Black Hole Quencher on the 3′ and 5′ ends of the DNA, respectively. DNA polymerase activity extends an annealed primer through the stem region, displacing the fluorophore from the quencher, thereby increasing its fluorescence (Figure 1(A)). The assay accurately recapitulates the kinetic behaviour of apPOL, as measured through more conventional low-throughput gel-based assays. The Z′ factor for the assay described here was 0.9 across all plates (data not shown).
Figure 1. High-throughput screening. (A) The fluorescent-based DNA polymerase assay used to screen the compound libraries. The DNA template strand is a hairpin loop with a primer annealed to the loop. The 3’ end of the primer is 11 bases away from the 6 bp duplex. Strand displacement activity of the DNA polymerase separates the Cy3 dye from the Black hole quencher leading to an increase in fluorescent signal. (B) The high-throughput assay workflow. The DNA polymerase is incubated with […] compound for 10 min prior to addition of the hairpin substrate. The reaction is quenched at 3 different time points and the fluorescent signal is measured and % inhibition is determined using the provided equation.

Sequence of P. falciparum apicoplast DNA polymerase (Pf-apPOL) (Q8ILY1 entry or part of it): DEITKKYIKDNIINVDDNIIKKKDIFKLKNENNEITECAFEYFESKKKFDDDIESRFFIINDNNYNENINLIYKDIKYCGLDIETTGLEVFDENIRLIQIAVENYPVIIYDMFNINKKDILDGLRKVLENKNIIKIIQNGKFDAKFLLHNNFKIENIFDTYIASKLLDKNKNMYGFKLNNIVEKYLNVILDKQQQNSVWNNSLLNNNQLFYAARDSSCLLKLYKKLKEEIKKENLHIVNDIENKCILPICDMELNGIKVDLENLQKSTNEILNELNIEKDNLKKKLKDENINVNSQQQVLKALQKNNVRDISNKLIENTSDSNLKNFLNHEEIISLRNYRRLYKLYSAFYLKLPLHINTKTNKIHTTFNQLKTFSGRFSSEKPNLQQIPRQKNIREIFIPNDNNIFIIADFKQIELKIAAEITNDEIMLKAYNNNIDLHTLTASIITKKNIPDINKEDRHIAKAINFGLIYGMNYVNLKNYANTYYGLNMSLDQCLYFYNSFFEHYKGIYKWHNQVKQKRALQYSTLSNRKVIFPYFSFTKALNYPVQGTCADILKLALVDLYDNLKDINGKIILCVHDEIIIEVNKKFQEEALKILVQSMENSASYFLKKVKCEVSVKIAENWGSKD

Structure (SMILES): COc1cc(NC(=O)c2ccccc2)c(OC)cc1NC(=O)Cc1cccs1 [KU0032113]
- % inhibition Apo pol 10' (DRC-1, concentration 2.5): 6.129%
- % inhibition Apo pol 10' (DRC-1, concentration 5): 17.2801%
- % inhibition Apo pol 10' (DRC-1, concentration 10): 38.185%
- % inhibition Apo pol 10' (DRC-1, concentration 20): 61.3818%
- % inhibition Apo pol 10' (DRC-1, concentration 40): 79.6269%
- % inhibition Apo pol 10' (DRC-1, concentration 80): 80.874%
- % inhibition Apol 90' (DRC-1, 90', concentration 2.5): 2.9%
- % inhibition Apol 90' (DRC-1, 90', concentration 5): 9.442%
- % inhibition Apol 90' (DRC-1, 90', concentration 10): 29.583%
- % inhibition Apol 90' (DRC-1, 90', concentration 20): 53.4832%
- % inhibition Apol 90' (DRC-1, 90', concentration 40): 79.1036%
- % inhibition Apol 90' (DRC-1, 90', concentration 80): 83.2869%
- % inhibition apPOL 180' (DRC-1, 180', concentration 2.5): 0.5437%
- % inhibition apPOL 180' (DRC-1, 180', concentration 5): 4.503%
- % inhibition apPOL 180' (DRC-1, 180', concentration 10): 19.4766%
- % inhibition apPOL 180' (DRC-1, 180', concentration 20): 39.9313%
- % inhibition apPOL 180' (DRC-1, 180', concentration 40): 73.4883%
- % inhibition apPOL 180' (DRC-1, 180', concentration 80): 81.431%
- % inhibition Apo pol 5' (DRC-2, 5', concentration 2.5 (unit not given)): 25%
- % inhibition Apo pol 5' (DRC-2, 5', concentration 10 (unit not given)): 38%
- % inhibition Apo pol 5' (DRC-2, 5', concentration 20 (unit not given)): 38%
- % inhibition Apo pol 5' (DRC-2, 5', concentration 40 (unit not given)): 34%
- % inhibition Apol 40' (DRC-2, 40', concentration 2.5 (unit not given)): 34%
- % inhibition Apol 40' (DRC-2, 40', concentration 10 (unit not given)): 54%
- % inhibition Apol 40' (DRC-2, 40', concentration 40 (unit not given)): 61%
- % inhibition ApPOL 90' (DRC-2, 90', concentration 5 (unit not given)): 25%
- % inhibition ApPOL 90' (DRC-2, 90', concentration 10 (unit not given)): 54%
- % inhibition apPOL 180' (DRC-2, 180', concentration 20 (unit not given)): 61%
- % inhibition Apo pol 5' (DRC-2, 5', concentration 2.5): 25%
- % inhibition Apo pol 5' (DRC-2, 5', concentration 5): 21%
- % inhibition Apo pol 5' (DRC-2, 5', concentration 10): 38%
- % inhibition Apo pol 5' (DRC-2, 5', concentration 20): 38%
- % inhibition Apo pol 5' (DRC-2, 5', concentration 40): 34%
- % inhibition Apo pol 5' (DRC-2, 5', concentration 80): -20%
- % inhibition Apol 40' (DRC-2, 40', concentration 2.5): 34%
- % inhibition Apol 40' (DRC-2, 40', concentration 5): 28%
- % inhibition Apol 40' (DRC-2, 40', concentration 10): 54%
- % inhibition Apol 40' (DRC-2, 40', concentration 20): 62%
- % inhibition Apol 40' (DRC-2, 40', concentration 40): 61%
- % inhibition Apol 40' (DRC-2, 40', concentration 80): 35%
- % inhibition ApPOL 90' (DRC-2, 90', concentration 2.5): 31%
- % inhibition ApPOL 90' (DRC-2, 90', concentration 5): 25%
- % inhibition ApPOL 90' (DRC-2, 90', concentration 10): 54%
- % inhibition ApPOL 90' (DRC-2, 90', concentration 20): 64%
- % inhibition ApPOL 90' (DRC-2, 90', concentration 40): 66%
- % inhibition ApPOL 90' (DRC-2, 90', concentration 80): 47%
- % inhibition apPOL 180' (DRC-2, 180', concentration 2.5): 22%
- % inhibition apPOL 180' (DRC-2, 180', concentration 5): 13%
- % inhibition apPOL 180' (DRC-2, 180', concentration 10): 44%
- % inhibition apPOL 180' (DRC-2, 180', concentration 20): 61%
- % inhibition apPOL 180' (DRC-2, 180', concentration 40): 67%
- % inhibition apPOL 180' (DRC-2, 180', concentration 80): 59%
- DNA Pol (primary screen value of the 186 hits): 42
- DNA Pol (primary screen value, head "DNA Pol"): 42

Structure (SMILES): Cn1nc(-c2nc(-c3ccccc3)no2)c2c1CCN(C(=O)Cc1cccs1)C2 [Molecule 58]
- IC50 (supplemental file 2, sheet IC50 nontoxic compounds, Pf-apPOL): 18.5 µM
